Experimental data taken from patent US20190216831A1 (priority 2015, published 2019).

What was measured:
EHV-1 [1] = assay: cells; details: Equus caballus, 144 h, read-out: IC50 for EHV-1 by cell viability
Description: (§6) Equine Dermal cells (ATCC CCL57) (10^5 cells/cm^2) were seeded in 96 well plates 24 to 72 hours before infection in complete media and incubated in a humid chamber at 37° C. and 5% CO2 until 95%-99% confluent monolayers were attained. Complete media was composed of DMEM medium (Gibco, Thermofisher Scientific) with 10% of Inactivated Fetal bovine serum (Gibco, Thermofisher Scientific), 1% of Glutamax (Gibco, Life Technologies) and 1% Penicilin-Streptamicin (Gibco, Thermofisher Scientific). […] (Selleckchem, Germany). The pre-treatment with the drug preceded the infection.
(§7) ED cells were pre-treated with drug for 30 minutes before infection, and treatment maintained during infection.
(§8) Cells were infected with EHV-1 at 1 MOI for 2 hours. Infective EHV-1 viral particles were produced in ED cells with an EHV-1 molecular clone purchased from ATCC (VR-2248). After infection cells were washed twice with HBSS to remove unbound virus and fresh complete media and fresh drug was replaced in each well. Treatment was maintained during 6 days without addition of fresh drug.
(§9) After 6 days post-infection reazurin-based cell viability assays (PrestoBlue, Thermofisher Scientific) were used to evaluate the increased cell numbers in the same conditions as indicated above for qPCR quantification. […] 15 μl of Prestoblue reagent was added directly to the assay wells and absorbance measured at 570 nm after 24 hours of incubation with the Prestoblue reagent. All the absorbance values were corrected by removing the baseline, absorbance values of the Prestoblue reagent incubated 24 hours without cells. The results were analysed by Prism software by using the four-parameter function (log (drug) vs. response assuming a variable slope).
(§10) Equine Dermal cells (ATCC CCL57) (10^5 cells/cm^2) were seeded in 96 well plates 24 to 72 hours before infection in complete media and incubated in a humid chamber at 37° C. and 5% CO2 until 95%-99% confluent monolayers were attained. Complete media was composed of DMEM medium (Gibco, Thermofisher Scientific) with 10% of Inactivated Fetal bovine serum (Gibco, Thermofisher Scientific), 1% of Glutamax (Gibco, Thermofisher Scientific) and 1% Penicilin-Streptamicin (Gibco, Thermofisher Scientific). […] (Selleckchem, Germany). The pre-treatment with the drug preceded the infection.

EHV-1 [2] = assay: EHV-1 viral particles in supernatant of ED cells by qPCR; assay type: cell-based, Equine herpesvirus 1; details: Equus caballus, 72 h, day 3 post infection
Description: (Selleckchem, Germany). The pre-treatment with the drug preceded the infection.
A standard curve of an EHV-1 synthetic DNA was used. To obtain the standard curve, seven 1:10 dilutions of the synthetic DNA in duplicates were tested in parallel. Samples were tested in triplicates. The standard curve obtained (with R2 0.995, Efficiency 91.7%) allowed us to quantify the EHV-1 viral particles produced into the cell culture media.

EHV-1 [3] = assay: PrestoBlue cell viability of EHV-1 infected MacF macrophage-like cells; assay type: cell-based, Equine herpesvirus 1; details: Equus caballus, 144 h, day 6 post infection, average of two independent experiments
Description: (§1) Antiviral activity of Adefovir dipivoxil was also evaluated in macrophage like cell lines. […] (Selleckchem, Germany). The pre-treatment with the drug preceded the infection.
(§2) Infections studies, viral particle quantification and cell viability assays were performed as described above for antiviral assays in ED cells.
(§3) Antiviral activity of Tenofovir disoproxil fumarate was also evaluated in macrophage like cell lines. […] (Selleckchem, Germany). The pre-treatment with the drug preceded the infection.
(§4) EHV-1 cell infections, viral particle production and cell viability assays were assayed as described in example 5.

EHV-1 [4] = assay: EHV-1 viral particles in supernatant of MacF macrophage-like cells by qPCR; assay type: cell-based, Equine herpesvirus 1; details: Equus caballus, 72 h, day 3 post infection
Description: as §1, §2, §3, §4

EHV-1 [5] = details: ED cells
Description: as §6, §7, §8, §9, §10

in vitro = details: horse (equine)
Description: For that, ED cells (10^5 cells/cm^2) were seeded as mentioned above in 96-well plates. […] To determine drug CC50, twelve different concentrations of 4, 6, 9, 13.5, 20.250, 30.370, 45.560, 68.340, 102.520, 153.770, 230.660 and 2000 μM were performed in quintuplicates per each drug concentration. Cell viability was assessed by using the PrestoBlue reagent as mention above for IC50 analysis and incubated for 24 hours.
For that, ED cells (10^5 cells/cm^2) were seeded as mentioned above in 96-well plates. […] To determine drug CC50, ten different 1:1.3 serial dilutions from 25.39 to 350 μM were performed in quintuplicates per each drug concentration. Cell viability was assessed by using the PrestoBlue reagent as mention above for IC50 analysis and incubated for 24 hours.

EIAVWYO [6] = assay: EIAV replication kinetics in equine dermal cells, RT qPCR of culture supernatants; assay type: cell-based, Equine infectious anemia virus; details: for EIAV viral replication decreased to (from 10^8) / EIAV viral replication reduced to (from 10^8): 10 μM; for EIAV viral replication decreased to (from 10^8): day 15 post infection; for EIAV viral replication reduced to (from 10^8): day 15 and 20 post infection
Description: Equine dermal cells (3×10^4 cells per well of a 96-well plate) were seeded and incubated in complete media (as described above for NEV infections) under 5% CO2 at 37° C., for 24 h to 72 hours prior to infection. The antiviral effect adefovir dipivoxil, as well as other are antiviral drugs approved by FDA or EMA such as Zidovudine (nucleoside reverse transcription inhibitor), Nevirapine (non-nucleoside reverse transcription inhibitor), Indinavir sulphate (a HIV-1 protease inhibitor), Darunavir Ethanolate (a HIV-1 protease inhibitor), Daclastavir (HCV NS5A inhibitor), Cyclosporin A (immunosuppressive agent) and the drug that is being evaluated in pre-clinical/clinical assays as antivirals, such as Tenofovir (a nucleoside reverse transcription inhibitor), was evaluated (FIGS. 4A and 4B).
The drugs mentioned above were also tested as antivirals for EIAV. For that cells were pre-treated with drugs at two different concentrations 1 or 10 μM for 1 hour in triplicates. Cells were then infected with EIAVWYO (3 MOI for 2 hours). After infection fresh media and drugs were replaced and cells incubated for 5, 10, 15 and 20 days. The EIAVWYO replication was evaluated by quantifying EIAV viral genome in culture supernatants by means of RT qPCR. FIGS. 4A and 4B show the effect of the different drugs in EIAV replication kinetics. […] Virus was only recovered at low levels from treated cells in one of three replicate at day 5 (10 viral particles/mL) and another of three replicates at day 15 (100 viral particles/mL). The differences observed between the treated and not treated infected cells were statistically significant for p<0.001.

NEV [7] = assay: Antiviral drug screen: PrestoBlue cell viability of NEV-infected Equine Dermal cells; assay type: cell-based, New Equine Virus; details: ED cells, 9 days
Text: (§5) Complete media was composed of DMEM medium (Gibco, Life Technologies) with 10% Inactivated Fetal bovine serum (Gibco, Life Technologies), 1% Glutamax (Gibco, Life Technologies) and 1% Penicillin-Streptamicin (Gibco, Life Technologies).
The antiviral effect of adefovir dipivoxil, as well as other are antiviral drugs approved by FDA or EMA such as Zidovudine (nucleoside reverse transcription inhibitor), Nevirapine (non-nucleoside reverse transcription inhibitor), Indinavir sulphate (a HIV-1 protease inhibitor), Darunavir Ethanolate (a HIV-1 protease inhibitor), Daclastavir (HCV NS5A inhibitor), Cyclosporin A (immunosuppressive agent) and the drug that is being evaluated in pre-clinical/clinical assays as antivirals, such as Tenofovir (a nucleoside reverse transcription inhibitor), was evaluated (FIGS. 4A and 4B). Cells were pre-treated with drugs at 1 or 10 μM in quintuplicates for one hour and infected with NEV (1130 PFU per well) for 2 hours. After 2 hours fresh media with drugs was replaced. Cells were then incubated for 9 days in a humid chamber 37° C. and 5% CO2. After 9 days cellular viability of treated cells was compared to those of non infected cells and infected and not treated cells by using PrestoBlue cell viability reagent. […]

NEV [8] = assay: Dose response: PrestoBlue cell viability of NEV-infected equine macrophage cell line (MacF); assay type: cell-based, New Equine Virus
Description: An equine macrophage cell line (MacF) was spontaneously immortalized from a NEV-seropositive horse accordingly the procedures reported in Fidalgo-Carvalho et. al, 2009.
Cells were incubated 24 to 72 hours before NEV infection until 95%-99% confluent cell monolayers were attained.
(Selleckchem, Germany), as reported above for ED cells. To determine drug IC50 in MacF cell line, eleven serial dilutions of 1:4 ranging from 0.05 nM to 28 μM were performed in quintuplicates for each drug concentration. MacF Cells were pre-treated with drug for 60 minutes before infection, and treatment was maintained during infection. NEV viral particles (10 μl containing 1130 PFU) were added to the cell culture media for 2 hours. […] Eleven days after infection, cells were screened for viability by using the PrestoBlue cell viability assay (Molecular Probes, Life Technologies) accordingly to manufacturer instructions. Absorbance (570 nm) of adefovir dipivoxil treated cells was compared to those of non-infected and/or untreated NEV infected cells.

NEV [9] = assay: Dose response: PrestoBlue cell viability of NEV-infected ED cells; assay type: cell-based, New Equine Virus
Description: as §5
(Selleckchem, Germany). The pre-treatment with adefovir dipivoxil (Selleckchem, Germany) preceded the infection. To determine drug IC50 ten 1:2 serial dilutions ranging from 5 to 2560 nM concentrations were performed in quintuplicates for each drug concentration. ED cells were pre-treated with drug for 60 minutes before infection, and treatment maintained during infection. NEV viral particles (10 μl containing 1130 PFU) were added to the cell culture media for 2 hours. […] Eleven days after infection, cells were screened for viability by using the PrestoBlue cell viability assay (Molecular Probes, Life Technologies) accordingly to manufacturer instructions. Absorbance (570 nm) of adefovir dipivoxil treated cells was compared to those of non-infected and/or untreated NEV-infected cells.

EIAVWYO [10] = assay: IC50 for EIAVWYO viral replication in ED cells by RT qPCR; assay type: cell-based; details: Equine infectious anemia virus, 168 h, read-out: IC50 (EIAVWYO viral replication)
Description: Furthermore, to better evaluate the effect of the drug on EIAVWYO viral replication on ED cells, we have determined the IC50 of adefovir dipivoxil. […] (Selleckchem, Germany) for 60 minutes. The pre-treatment with Adefovir dipivoxil (Selleckchem, Germany) preceded the infection. Eleven serial dilutions ranging from 0.01 to 10,000 nM (0.01, 19.53, 39.06, 78.130, 156.250, 312.5, 625, 1250, 2500, 5000 and 10000 nM) were performed in triplicates for each drug concentration. Treatment was maintained during infection. EIAVWYO viral particles (10 μl containing 1.9×10^5 viral particles) were added in each well of a 96-well plate and incubated for 2 hours. […] For quantification, a standard curve of an EIAV plasmid DNA was used. To obtain the standard curve, seven 1:10 dilutions in duplicates were tested in parallel. Samples were tested in triplicates. The standard curve obtained (with R^2 0.994, Efficiency 96.56%) allowed us to quantify the viral particles.

[11] = Cytotoxicity (CC50) in MacF macrophage cell line, PrestoBlue; assay type: cell-based; details: horse (equine), MacF cells, treated for 7 days
Text: (Selleckchem, Germany) for 7 days.

**Q.** For `CC(C)OC(=O)OCOP(=O)(CO[C@H](C)Cn1cnc2c(N)ncnc21)OCOC(=O)OC(C)C.O=C(O)/C=C/C(=O)O` [tenofovir disoproxil fumarate], which IC50 (EHV-1 [1]) is on record?
**A.** 14000 nM

**Q.** What about the IC50 (EHV-1 [2]; average of four independent experiments) of the same compound?
**A.** 7440 nM

**Q.** And the IC50 (EHV-1 [3])?
**A.** 22700 nM

**Q.** And the IC50 (EHV-1 [4]; average of two independent experiments)?
**A.** 1130 nM

**Q.** And the “therapeutic index (CC50/IC50) for EHV-1” value (EHV-1 [5])?
**A.** 8.334

**Q.** And the CC50 at 3 days (in vitro)?
**A.** 117000 nM

**Q.** Which “EIAV viral replication decreased to (from 10^8)” value (EIAVWYO [6]) does the source give for `CC(C)(C)NC(=O)[C@@H]1CN(Cc2cccnc2)CCN1C[C@@H](O)C[C@@H](Cc1ccccc1)C(=O)N[C@H]1c2ccccc2C[C@H]1O` [Indinavir] here?
**A.** 10^4 viral particles/mL

**Q.** With `C[C@H](Cn1cnc2c(N)ncnc21)OCP(=O)(O)O` [tenofovir, [(2R)-1-(6-aminopurin-9-yl)propan-2-yl]oxymethylphosphonic acid] as the compound, how does the “cell viability of NEV infected cells” value (NEV [7]; drug at 10 μM) read?
**A.** increased the cell viability of infected cells

**Q.** What about the “EIAV viral replication reduced to (from 10^8)” value (EIAVWYO [6]) of the same compound?
**A.** 10^5 viral particles/mL

**Q.** For `Cc1cn([C@H]2C[C@H](N=[N+]=[N-])[C@@H](CO)O2)c(=O)[nH]c1=O` [zidovudine], which “EIAV viral replication reduced to (from 10^8)” value (EIAVWYO [6]) is on record?
**A.** 10^5 viral particles/mL

**Q.** With `CC(C)(C)C(=O)OCOP(=O)(COCCn1cnc2c(N)ncnc21)OCOC(=O)C(C)(C)C` [adefovir dipivoxil, 9-[2-[[bis[(pivaloyloxy)methoxy]phosphinyl]-methoxy]ethyl]adenine] as the compound, how does the IC50 (EHV-1 [1]) read?
**A.** 123 nM

**Q.** What about the IC50 (EHV-1 [2]; three independent experiments) of the same compound?
**A.** 4.42 nM

**Q.** What about the “cell viability (absorbance) compared with Mock MacF cells” value (NEV [8]; 14 μM, 11 days post NEV infection) of the same compound?
**A.** very similar (or even slightly higher)

**Q.** What about the IC50 (NEV [8]; Equus caballus, Macrophage, 264 h, MacF cells, 11 days after infection) of the same compound?
**A.** 3840 nM

**Q.** And the IC50 (EHV-1 [3])?
**A.** 172 nM

**Q.** And the “cell viability (absorbance) compared with non-infected mock cells” value (NEV [9]; 320 nM, 11 days post NEV infection)?
**A.** very similar absorbance values

**Q.** What about the IC50 (NEV [9]; Equus caballus, 264 h, 11 days after infection) of the same compound?
**A.** 113 nM

**Q.** What about the IC50 (EIAVWYO [10]) of the same compound?
**A.** 3.38 nM

**Q.** And the “cellular viability of NEV infected cells” value (NEV [7]; drug at 1 or 10 μM, vs non infected and untreated infected cells)?
**A.** completely reverted the effect of NEV on cellular viability

**Q.** What about the IC50 (EHV-1 [4]; average of three independent experiments) of the same compound?
**A.** 142 nM

**Q.** What about the “effect on EIAV replication” value (EIAVWYO [6]; ED cells, 1 or 10 μM, single dose, up to 20 days) of the same compound?
**A.** blocked the EIAV replication

**Q.** And the “virus recovered from treated cells” value (EIAVWYO [6]; day 5, one of three replicates)?
**A.** 10 viral particles/mL

**Q.** And the “virus recovered from treated cells” value (EIAVWYO [6]; day 15, one of three replicates)?
**A.** 100 viral particles/mL

**Q.** And the “therapeutic index (CC50/IC50) for EHV-1” value (EHV-1 [5])?
**A.** 1162.3

**Q.** What about the CC50 at 7 days [11] of the same compound?
**A.** 207000 nM

**Q.** And the CC50 at 6 days (in vitro; Equine Dermal (ED) cells (ATCC CCL57))?
**A.** 142000 nM

**Q.** For `CC(C)CN(C[C@@H](O)[C@H](Cc1ccccc1)NC(=O)O[C@H]1CO[C@H]2OCC[C@H]21)S(=O)(=O)c1ccc(N)cc1` [Darunavir], which “EIAV viral replication decreased to (from 10^8)” value (EIAVWYO [6]) is on record?
**A.** 10^3 viral particles/mL
